{"source": "paper PMC3095715", "about": "(Chemical biology & drug design, 2011)", "biological_target": "human C3 (Homo sapiens, UniProt P01024)", "sequence (P01024 23-1663)": "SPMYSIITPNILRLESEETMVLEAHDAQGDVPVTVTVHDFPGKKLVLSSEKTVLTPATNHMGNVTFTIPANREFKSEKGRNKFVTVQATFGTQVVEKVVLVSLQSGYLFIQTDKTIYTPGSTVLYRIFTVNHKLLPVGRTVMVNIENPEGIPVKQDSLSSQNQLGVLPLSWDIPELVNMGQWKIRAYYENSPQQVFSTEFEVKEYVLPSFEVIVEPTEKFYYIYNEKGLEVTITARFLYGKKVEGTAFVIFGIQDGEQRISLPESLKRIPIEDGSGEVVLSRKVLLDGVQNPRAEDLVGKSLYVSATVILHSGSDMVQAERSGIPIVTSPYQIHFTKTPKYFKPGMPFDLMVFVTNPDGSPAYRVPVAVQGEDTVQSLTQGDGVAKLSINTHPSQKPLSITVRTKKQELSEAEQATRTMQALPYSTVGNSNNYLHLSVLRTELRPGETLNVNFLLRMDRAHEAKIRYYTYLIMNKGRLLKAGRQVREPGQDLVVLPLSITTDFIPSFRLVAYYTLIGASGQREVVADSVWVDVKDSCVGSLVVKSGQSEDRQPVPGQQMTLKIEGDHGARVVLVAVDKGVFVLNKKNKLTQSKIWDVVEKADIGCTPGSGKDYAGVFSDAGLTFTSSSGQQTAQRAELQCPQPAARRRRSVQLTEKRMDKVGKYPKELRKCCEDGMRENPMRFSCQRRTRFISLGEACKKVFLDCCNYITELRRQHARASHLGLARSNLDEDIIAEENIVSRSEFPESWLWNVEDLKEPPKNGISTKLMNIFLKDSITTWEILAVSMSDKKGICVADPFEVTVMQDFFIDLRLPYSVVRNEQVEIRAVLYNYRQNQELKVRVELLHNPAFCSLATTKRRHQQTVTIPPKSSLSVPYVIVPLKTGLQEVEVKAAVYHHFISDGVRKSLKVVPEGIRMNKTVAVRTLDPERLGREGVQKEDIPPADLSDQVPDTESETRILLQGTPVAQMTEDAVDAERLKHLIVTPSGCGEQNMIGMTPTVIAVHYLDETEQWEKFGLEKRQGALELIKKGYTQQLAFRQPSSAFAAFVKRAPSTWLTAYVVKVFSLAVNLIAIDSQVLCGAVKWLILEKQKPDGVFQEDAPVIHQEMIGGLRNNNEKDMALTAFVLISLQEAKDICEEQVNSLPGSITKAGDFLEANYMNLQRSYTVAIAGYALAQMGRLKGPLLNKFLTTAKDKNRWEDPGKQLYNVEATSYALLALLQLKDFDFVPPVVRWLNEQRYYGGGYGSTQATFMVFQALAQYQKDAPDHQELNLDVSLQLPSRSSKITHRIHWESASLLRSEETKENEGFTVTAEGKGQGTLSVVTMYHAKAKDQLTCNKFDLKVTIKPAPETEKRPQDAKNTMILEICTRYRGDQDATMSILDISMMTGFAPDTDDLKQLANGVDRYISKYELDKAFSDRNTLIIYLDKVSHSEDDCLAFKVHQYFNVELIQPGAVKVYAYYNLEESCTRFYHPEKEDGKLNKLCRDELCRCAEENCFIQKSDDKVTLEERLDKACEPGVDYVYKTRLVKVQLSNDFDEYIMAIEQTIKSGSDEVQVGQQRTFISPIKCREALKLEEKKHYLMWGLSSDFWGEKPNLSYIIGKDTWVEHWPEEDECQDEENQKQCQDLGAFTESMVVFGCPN", "experiment": "Surface plasmon resonance", "type": "binding", "conditions": "SPR", "data": [{"substance": "Ac-W[CVWQDWGAWRC]W-(PEG)8-K-(biotin)-NH2 (disulfide) [Peptide X]", "values": [{"measurement": "Binding to C3 (result in words)", "result": "not to bind to C3"}]}]}
